Where two headings read alike, the source gives them in different places. Ends that are not written are not given here.
Tests used:
[1] = target: T1, human JMJD5 (Homo sapiens, UniProt Q8N371); assay: SPE-MS JMJD5 turnover and kinetic assay (RPS6_128–148 hydroxylation); format: biochemical; settings: for k app cat: calculated from vmax; for JMJD5 (%): RPS6_128–148 hydroxylation with the compound as cosubstrate: absence of 2OG, JMJD5 0.15 μM, 2OG derivative 400 μM, Fe(II) 20 μM, RPS6_128–148 2.0 μM; for JMJD5-catalyzed RPS6_128–148 hydroxylation, time course: after 50 min, 10 μM cosubstrate, 0.15 μM JMJD5, 10 μM Fe(II), 2.0 μM RPS6_128–148
T1 construct: made in house; host or cells: Escherichia coli BL21(DE3)
T1 sequence (Q8N371 whole entry): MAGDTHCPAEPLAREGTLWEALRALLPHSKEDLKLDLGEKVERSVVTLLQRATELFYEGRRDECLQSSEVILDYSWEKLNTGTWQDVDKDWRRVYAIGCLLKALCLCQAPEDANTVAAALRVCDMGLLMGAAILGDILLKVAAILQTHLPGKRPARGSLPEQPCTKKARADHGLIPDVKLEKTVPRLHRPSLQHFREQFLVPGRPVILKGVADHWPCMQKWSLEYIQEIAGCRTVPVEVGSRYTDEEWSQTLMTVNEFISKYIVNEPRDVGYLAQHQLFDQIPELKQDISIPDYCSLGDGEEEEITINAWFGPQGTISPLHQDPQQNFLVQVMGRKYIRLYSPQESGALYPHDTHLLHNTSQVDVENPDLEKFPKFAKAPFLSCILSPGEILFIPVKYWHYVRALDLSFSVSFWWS

[2] = target: T2, human KDM4E (Homo sapiens, UniProt B2RXH2); assay: KDM4E SPE-MS turnover and kinetic assay (H3 K9(me3) peptide demethylation); format: biochemical; settings: for KDM4E (%): substrate demethylation with the compound as cosubstrate: absence of 2OG, KDM4E 0.15 μM, 2OG derivative 330 μM, Fe(II) 50 μM
T2 sequence (B2RXH2 1-506): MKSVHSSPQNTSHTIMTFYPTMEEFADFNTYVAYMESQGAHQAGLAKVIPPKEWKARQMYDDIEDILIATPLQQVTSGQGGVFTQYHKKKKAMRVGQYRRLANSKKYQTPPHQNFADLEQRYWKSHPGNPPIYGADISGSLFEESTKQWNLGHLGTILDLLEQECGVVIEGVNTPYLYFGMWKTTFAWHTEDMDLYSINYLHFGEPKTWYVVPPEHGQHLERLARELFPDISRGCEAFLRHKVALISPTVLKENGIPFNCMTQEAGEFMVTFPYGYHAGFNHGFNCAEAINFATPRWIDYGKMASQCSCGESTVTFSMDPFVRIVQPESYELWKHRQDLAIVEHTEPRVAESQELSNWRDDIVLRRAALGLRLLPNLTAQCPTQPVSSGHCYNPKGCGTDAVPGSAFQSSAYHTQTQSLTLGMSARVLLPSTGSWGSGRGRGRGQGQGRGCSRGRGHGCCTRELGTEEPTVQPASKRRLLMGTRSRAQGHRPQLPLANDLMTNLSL

[3] = test system: human FIH; settings: FIH 0.15 μM, cited from earlier work; for FIH (%): substrate hydroxylation with the compound as cosubstrate: absence of 2OG, 2OG derivative 330 μM, Fe(II) 50 μM, HIF-1α788–822 5.0 μM
[4] = test system: human AspH; settings: cited from earlier work; for AspH (%): substrate hydroxylation with the compound as cosubstrate: absence of 2OG, AspH 0.1 μM, 2OG derivative 330 μM, Fe(II) 50 μM, hFX-CP101–119 2.0 μM
[5] = test system: KDM4C; set-up: method as in PMID 21859681; settings: KDM4C 0.5 μM, ARTAQTARK(me3)STGGIA substrate; cited from earlier work
[6] = test system: PHD2; set-up: method as in PMID 18952043; settings: PHD2 1.0 nM, cited from earlier work
[7] = test system: JMJD5; settings: cited from earlier work; for K m: 10.0 μM JMJD5, 50 mM HEPES pH 7.5, read-out: Km JMJD5 (MALDI-TOF MS assay)
[8] = target: T1, human JMJD5; assay: SPE-MS JMJD5 inhibition assay; format: biochemical; settings: JMJD5 0.15 μM, 2OG 2.0 μM, Fe(II) 2.0 μM, LAA 100 μM, RPS6_128–148 2.0 μM; read-out: IC50 JMJD5
Method: Solutions of the small-molecules (100% DMSO) were dry dispensed across 384 well polypropylene V-bottom assay microplates (Greiner) in an approximately three-fold and 11-point dilution series (100 μM inhibitor top concentration; the final DMSO assay concentration was kept constant at 0.5%v/v) using an ECHO 550 acoustic dispenser (Labcyte). […] Each reaction was performed in technical duplicates in adjacent wells of the assay plates; additionally, assays were performed in two independent duplicates on different days using different inhibitor solutions.
The Enzyme Mixture (25 μL per well), containing 0.3 μM His6-thioredoxin-tagged JMJD5 in buffer (50 mM MOPS, pH 7.5), was dispensed across the inhibitor-containing 384-well plates with a multidrop dispenser (ThermoFischer Scientific) at 20 °C under an ambient atmosphere. The plates were subsequently centrifuged (1000 rpm, 5 s) and incubated for 15 min at 20 °C. […] The plates were centrifuged (1000 rpm, 5 s) and, after incubating for 30 min, the enzyme reaction was stopped by the addition of 10%v/v aqueous formic acid (5 μL per well). The plates were then centrifuged (1000 rpm, 30 s) and analyzed by MS.
Z′-Factors were calculated according to the cited literature using Microsoft Excel.[61]

[9] = target: T2, human KDM4E; assay: KDM4E SPE-MS inhibition assay; format: biochemical; settings: KDM4E 0.15 μM, peptide 10.0 μM, LAA 100 μM, FAS 10 μM, 2OG 10 μM
Method: KDM4E turnover and inhibition assays were performed as reported using recombinant human KDM4E and a histone 3 K9(me3) derivative (i.e. […](me3)STGGIA)[41] as substrate.[95] […]

[10] = test system: human FIH; set-up: method as in ref 10 (ESI); settings: FIH 0.15 μM, HIF-1α788-822 5.0 μM, 2OG 10 μM; ref 10 (ESI); cited from earlier work
[11] = test system: human AspH; set-up: method as in ref 9 (ESI); settings: AspH 0.05 μM, hFX-CP101-119 1.0 μM, 2OG 3.0 μM; ref 9 (ESI); cited from earlier work
[12] = 0.15 μM JMJD5, 50 mM MOPS pH 7.5, 20 °C, 100 μM LAA present
[13] = 0.15 μM JMJD5, 50 mM MOPS pH 7.5, 20 °C, LAA present
[14] = AspH315–758 0.1 μM, hFX–CP101–119 substrate

Molecule | v app max [1, 12] [nM/s] | k app cat [1, 13] [s⁻¹] | JMJD5 (%): RPS6_128–148 hydroxylation with the compound as cosubstrate [1] | JMJD5-catalyzed RPS6_128–148 hydroxylation, time course [1] [%] | KDM4E (%): substrate demethylation with the compound as cosubstrate ([2]; ARTAQTARK(me3)STGGIA 10.0 μM) | FIH (%): substrate hydroxylation with the compound as cosubstrate [3] | K m [4, 14] [µM] | K m [7] [µM] | IC50 [8] [µM] | IC50 [9] [µM] | IC50 [10] [µM] | IC50 [11] [µM] | further results
O=C(O)CCC(=O)C(=O)O [2OG, 2-oxoglutarate, reference compound] | 0.84 ± 0.03 | 0.0056 ± 0.0002 | ~ 40% | ~50 | ~ 70% | ~ 50% | 0.60 ± 0.09 | ~9.5 | – | – | – | – | K app m [1, 13]: 0.29 ± 0.04 µM; K app m ([2]; 0.15 μM KDM4E, ARTAQTARK(me3)STGGIA 10 μM): 4.2 ± 1.1 µM; v app max ([2]; 0.15 μM KDM4E, ARTAQTARK(me3)STGGIA 10.0 μM, 50 mM MES pH 7.0, 20 °C): 20.6 ± 1.3 nM/s; K m ([3]; HIF-1α788–822 substrate): 0.8 ± 0.1 µM; k cat ([3]; HIF-1α788–822 substrate): 0.04 ± 0.01 s⁻¹; K m [5]: 2.6 ± 0.1 µM; k cat [5]: 0.075 ± 0.001 s⁻¹; K m ([6]; biotin-[…] substrate): 0.35 ± 0.03 µM
RPS6_129–144: truncated version of the RPS6_128–148 substrate peptide used in MALDI-TOF MS assays (VPRRLGPKRASRIRKL-NH2; UniProt P62753 129-144, looked up, fragment) | – | – | – | – | – | – | – | ~60 | – | – | – | – | –
ammonium iron(II) sulfate hexahydrate [Fe(II)] | 0.75 ± 0.03 | 0.005 ± 0.0002 | – | – | – | – | 1.42 ± 0.16 | ~2.7 | – | – | – | – | K app m ([1]; 0.15 μM JMJD5, absence of LAA): 0.46 ± 0.11 µM; v app max ([1]; 0.15 μM JMJD5, absence of LAA): 0.73 ± 0.05 nM/s; k app cat ([1]; 0.15 μM JMJD5, absence of LAA): 0.0049 ± 0.0004 s⁻¹; k cat [4, 14]: 0.19 ± 0.03 s⁻¹; K m ([6]; biotin-DLEMLAPYIPMDDDFQ substrate): 0.89 ± 0.07 µM
CC(CC(=O)O)C(=O)C(=O)O (stereo not drawn) [2OG derivative 1, 3-methyl-2OG] | – | – | – | ~20 | – | – | – | – | > 50 | > 30 | > 50 | > 50 | JMJD5 (%): RPS6_128–148 hydroxylation with the compound as cosubstrate ([1]; listed as Entry 2): ~ 10%; fold less efficient KDM4E cosubstrate than 2OG [2]: ~7 fold; KDM4E (%): substrate demethylation with the compound as cosubstrate ([2]; ARTAQTARK(me3)STGGIA 10.0 μM, listed as Entry 2): ~ 10%; FIH (%): substrate hydroxylation with the compound as cosubstrate ([3]; listed as Entry 2): ~ 55%; AspH (%): substrate hydroxylation with the compound as cosubstrate ([4]; listed as Entry 2): > 95%
O=C(O)CNC(=O)c1ncc(-c2cccc(Cl)c2)cc1O [vadadustat] | – | – | – | – | – | – | – | – | – | – | – | – | IC50 ([7]; read-out: IC50 JMJD5 (MALDI-TOF MS assay)): ~54 µM
O=C(O)C(=O)c1ccc(C(=O)O)c(F)c1 [2OG derivative 29] | – | – | < 1% | – | < 1% | < 1% | – | – | > 50 | > 50 | > 50 | > 50 | AspH (%): substrate hydroxylation with the compound as cosubstrate [4]: ~ 8%
